From the NIST ThermoML archive (doi:10.1016/j.jct.2016.03.001)
Numbers after ± are expanded uncertainties.

Experiment: molar heat capacity at constant pressure
Details: 101.33 kPa, Crystal, Small sample (50 mg) DSC

O=[PH](O)O [phosphonic acid]
Details	molar heat capacity at constant pressure [J/K/mol]
243.2 K	48.3 ± 1.1
244.2 K	48.54 ± 1.2
245.2 K	48.62 ± 1.2
246.2 K	48.87 ± 1.2
247.2 K	49.03 ± 1.2
248.2 K	49.36 ± 1.2
249.2 K	49.69 ± 1.2
250.2 K	49.77 ± 1.2
251.2 K	50.1 ± 1.2
252.2 K	50.35 ± 1.2
253.2 K	50.59 ± 1.2
254.2 K	50.59 ± 1.2
255.2 K	50.84 ± 1.2
256.2 K	51 ± 1.2
257.2 K	51.08 ± 1.2
258.2 K	51.17 ± 1.2
259.2 K	51.33 ± 1.2
260.2 K	51.49 ± 1.2
261.2 K	51.9 ± 1.3
262.2 K	52.15 ± 1.3
263.2 K	52.48 ± 1.3
264.2 K	52.72 ± 1.3
265.2 K	52.97 ± 1.3
266.2 K	53.22 ± 1.3
267.2 K	53.54 ± 1.3
268.2 K	53.87 ± 1.3
269.2 K	54.2 ± 1.3
270.2 K	54.28 ± 1.3
271.2 K	54.45 ± 1.3
272.2 K	54.69 ± 1.3
273.2 K	54.86 ± 1.3
274.2 K	55.35 ± 1.4
275.2 K	55.76 ± 1.4
276.2 K	57.81 ± 1.4
277.2 K	58.46 ± 1.4
278.2 K	57.32 ± 1.4
279.2 K	56.91 ± 1.4
280.2 K	57.15 ± 1.4
281.2 K	57.32 ± 1.4
282.2 K	57.56 ± 1.4
283.2 K	57.81 ± 1.4
284.2 K	57.64 ± 1.4
285.2 K	57.64 ± 1.4
286.2 K	57.89 ± 1.4
287.2 K	58.87 ± 1.5
288.2 K	60.18 ± 1.5
289.2 K	60.02 ± 1.5
290.2 K	60.02 ± 1.5
291.2 K	60.1 ± 1.5
292.2 K	60.59 ± 1.5
293.2 K	61.09 ± 1.5
294.2 K	61 ± 1.5
295.2 K	61.09 ± 1.5
296.2 K	61.5 ± 1.5
297.2 K	61.58 ± 1.5
298.2 K	62.07 ± 1.6
299.2 K	62.48 ± 1.6
300.2 K	62.81 ± 1.6
301.2 K	63.38 ± 1.6
302.2 K	63.63 ± 1.6
303.2 K	64.45 ± 1.6
304.2 K	64.94 ± 1.6
305.2 K	65.35 ± 1.6
306.2 K	65.76 ± 1.6
307.2 K	66.33 ± 1.6
308.2 K	66.74 ± 1.6
309.2 K	67.4 ± 1.6
310.2 K	67.65 ± 1.6
311.2 K	68.06 ± 1.6
312.2 K	68.71 ± 1.7
313.2 K	69.37 ± 1.7
314.2 K	70.11 ± 1.7
315.2 K	70.35 ± 1.7
316.2 K	71.09 ± 1.7
317.2 K	71.66 ± 1.7
318.2 K	72.48 ± 1.8
319.2 K	73.22 ± 1.8
320.2 K	73.88 ± 1.8
321.2 K	75.03 ± 1.8
322.2 K	75.93 ± 1.9
323.2 K	77.24 ± 1.9
324.2 K	78.55 ± 1.9
325.2 K	80.44 ± 2
326.2 K	81.91 ± 2
327.2 K	83.64 ± 2
328.2 K	85.11 ± 2
